Assay results from paper PMC12314892, “Macrocyclic Phage Display for Identification of Selective Protease Substrates” (Journal of the American Chemical Society, 2025).
*1 amine or outer side, *2 acyl side, *3 side chain or, on linkers, in order; H or OH if unused. Where a SMILES comes first, the peptide text is derived from it. Bridges are numbered along the chain shown (N, C = ends). The star is where a group is joined. X1 = NC(=O)Cc1cc(=O)oc2cc(NC(=O)[C@@H]3CCCN3C(=O)Cn3nc(C[*:1])cc3C[*:2])ccc12; X2 = NC(=O)Cc1cc(=O)oc2cc(NC(=O)[C@@H]3CCCN3C(=O)Cn3nc(C[*:2])cc3C[*:1])ccc12; AMC = Cc1cc(=O)oc2cc(N*)ccc12; Cbz = O=C(OCc1ccccc1)*

Tests used:
Recombinant Human FAPα = target: T1, Recombinant Human FAPα (Homo sapiens, UniProt Q12884); experiment: Kinetic evaluation of substrates; assay type: biochemical; settings: for kcat/KM / kcat / Km: 10 nM FAPα, 37 °C, 60 min, Michaelis-Menten fit, triplicates; for kcat / Km: ± SD; for Km: 50 mM Tris, 1 M NaCl, 1 mg/mL BSA, pH 7.5, ex/em 355/460 nm
T1 construct: purchased R&D Systems 3715-SE-010
T1 sequence (Q12884 1-760): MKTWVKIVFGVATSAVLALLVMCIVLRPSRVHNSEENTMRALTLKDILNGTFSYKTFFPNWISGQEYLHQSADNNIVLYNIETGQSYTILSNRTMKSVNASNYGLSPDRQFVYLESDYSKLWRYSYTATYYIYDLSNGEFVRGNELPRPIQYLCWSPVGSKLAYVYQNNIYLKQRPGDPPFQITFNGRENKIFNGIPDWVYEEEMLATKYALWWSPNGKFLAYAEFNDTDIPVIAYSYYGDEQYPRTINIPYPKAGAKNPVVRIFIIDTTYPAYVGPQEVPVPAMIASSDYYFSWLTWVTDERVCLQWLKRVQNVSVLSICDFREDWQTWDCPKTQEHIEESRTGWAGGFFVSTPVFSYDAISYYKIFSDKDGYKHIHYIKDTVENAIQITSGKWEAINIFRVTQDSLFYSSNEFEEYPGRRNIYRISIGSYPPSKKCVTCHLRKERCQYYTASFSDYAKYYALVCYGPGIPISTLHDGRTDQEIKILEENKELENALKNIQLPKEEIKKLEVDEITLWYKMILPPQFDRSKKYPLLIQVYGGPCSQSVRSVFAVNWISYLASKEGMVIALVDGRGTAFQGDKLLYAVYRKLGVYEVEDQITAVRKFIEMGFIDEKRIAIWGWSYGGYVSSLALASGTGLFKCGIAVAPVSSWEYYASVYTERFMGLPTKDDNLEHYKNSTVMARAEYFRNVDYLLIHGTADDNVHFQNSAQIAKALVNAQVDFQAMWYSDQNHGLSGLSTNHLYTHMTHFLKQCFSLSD
Procedure: (§1) Fluorogenic Substrate Cleavage Assay
(§2) The following proteases were used for the activity assay: Recombinant Human FAPα Protein, CF (R&D Systems, Catalog No.: 3715-SE-010), Recombinant Human Prolyl Oligopeptidase/PREP Protein, CF (R&D Systems, Catalog No.: 4308-SE-010). Recombinant Human DPP9 Protein, CF (R&D Systems, Catalog No.: 5419-SE-010). Recombinant Human DPP4 Protein (Sino Biological, Catalog No.: 10688-HNCH-10). The buffers used for the activity assay were: FAPα - 50 mM Tris, 1 M NaCl, 1 mg/mL BSA, pH 7.5, PREP- 25 mM Tris, 250 mM NaCl, 2.5 mM DTT, pH 7.5 (DTT was freshly added immediately before use), DPP9- 25 mM Tris, pH 7.5, DPP4- 25 mM Tris, pH
(§3) 7.5. The following commercial substrates were used: zGP-AMC (Bachem,Catalog No.: […]
(§4) conducted in Greiner Bio-One black microplates of 384 wells and polystyrene F-bottom (Catalog No.: 784076). All compounds were dissolved in DMSO at a concentration of 10 mM and then diluted into the respective buffer to the desired final concentration. The protease was added to the specified concentration before the fluorescence measurements. For fluorescence measurements, 2 μL of substrate was further diluted into 6 μL of buffer, followed by addition of 2 μL of enzyme in buffer. For no enzyme controls 2 μL of substrate was diluted into 8 μL of buffer.
(§5) The fluorescence was measured using a Cytation 3 plate reader (BioTek). All experiments have at least three technical replicates. All assays were conducted at 37°C for a minimum of 90 min, unless otherwise noted. Fluorescence measurements were performed at ex/em, 355/460 nm for ACC substrates. The substrates velocity was quantified by calculating the slope of the linear phase of the reaction as relative fluorescence units (RFU) per min.
(§6) Kinetic evaluation of substrates
(§7) To order to determine the kcat/KM, the previously indicated proteases were tested under their corresponding buffer conditions. Substrates were serially diluted in water, and 2 µL of each dilution was added to 6 µL of assay buffer in a 384-well plate. The plate was briefly centrifuged to ensure proper mixing and to eliminate air bubbles. Fluorescence measurements were initiated by adding 2 µL of the protease solution (prepared in activity buffer) to each well, yielding a final volume of 10 µL. Reactions were monitored at 37 °C for 60 minutes using a plate reader set to excitation/emission wavelengths of 355/460 nm. Control wells without enzyme contained 8 µL of assay buffer, instead of enzyme, and 2 µL of substrate. All measurements were performed in at least triplicate. The initial linear portion of each fluorescence progress curve was used to calculate initial reaction velocities (RFU/min). Calibration curves using free AMC were generated under the corresponding buffer and assay conditions to allow extrapolation of RFU values to µM concentrations. Michaelis-Menten kinetic parameters K M, kcat and kcat/,KM were determined using […]
(§8) GraphPad Prism version 10.4.1. […]
(§9) determined due to poor model fit. […]

[1] = target: T2, Recombinant Human Prolyl Oligopeptidase/PREP (Homo sapiens, UniProt P48147); experiment: Kinetic evaluation of substrates; assay type: biochemical; settings: for SI (selectivity index, coefficient of the proteases kcat/Km), FAPα vs PREP: kcat/KM FAPα over kcat/KM PREP
T2 construct: purchased R&D Systems 4308-SE-010
T2 sequence (P48147 1-710): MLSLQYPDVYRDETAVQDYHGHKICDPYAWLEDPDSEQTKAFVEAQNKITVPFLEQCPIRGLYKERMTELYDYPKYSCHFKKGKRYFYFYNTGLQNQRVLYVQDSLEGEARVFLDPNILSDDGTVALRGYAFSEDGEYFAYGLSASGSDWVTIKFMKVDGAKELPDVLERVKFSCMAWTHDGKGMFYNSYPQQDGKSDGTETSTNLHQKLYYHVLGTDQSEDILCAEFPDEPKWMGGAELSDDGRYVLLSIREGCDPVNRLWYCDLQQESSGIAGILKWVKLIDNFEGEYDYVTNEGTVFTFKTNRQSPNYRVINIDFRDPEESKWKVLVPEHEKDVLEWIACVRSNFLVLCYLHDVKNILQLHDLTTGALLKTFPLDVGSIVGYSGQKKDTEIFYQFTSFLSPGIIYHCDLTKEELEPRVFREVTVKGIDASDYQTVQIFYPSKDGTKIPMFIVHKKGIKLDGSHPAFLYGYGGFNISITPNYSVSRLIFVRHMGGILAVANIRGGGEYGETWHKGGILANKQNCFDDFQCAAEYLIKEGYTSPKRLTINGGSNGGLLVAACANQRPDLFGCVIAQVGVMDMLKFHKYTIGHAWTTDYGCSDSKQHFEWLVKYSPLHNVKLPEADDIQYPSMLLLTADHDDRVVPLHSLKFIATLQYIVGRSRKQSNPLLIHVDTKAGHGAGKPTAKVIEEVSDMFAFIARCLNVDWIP
Procedure: as §1, §2, §3, §4, §5, §6, §7, §8, §9

[2] = 3 nM PREP, 37 °C, 60 min, Michaelis-Menten fit, triplicates

Row | Km (Recombinant Human FAPα) [µM] | SI (selectivity index, coefficient of the proteases kcat/Km), DPP4 vs FAPα (Recombinant Human FAPα; kcat/KM DPP4 over kcat/KM FAPα) | SI (selectivity index, coefficient of the proteases kcat/Km), DPP4 vs PREP ([1]; kcat/KM DPP4 over kcat/KM PREP) | Km ([1]; 3 nM PREP, 25 mM Tris, 250 mM NaCl, 2.5 mM DTT, pH 7.5, 37 °C, 60 min, triplicates, ± SD, FAP33.2 and FAP33.2A6 showed substrate inhibition) [µM] | kcat [1, 2] [s⁻¹] | kcat/KM [1, 2] [M⁻¹ s⁻¹] | SMILES | kcat/KM (Recombinant Human FAPα) [M⁻¹ s⁻¹] | kcat (Recombinant Human FAPα) [s⁻¹] | Ki ([1]; 3 nM PREP, substrate inhibition, 37 °C) [µM] | SI (selectivity index, coefficient of the proteases kcat/Km), FAPα vs PREP [1]
1 | – | – | – | – | – | – | CC(C)[C@@H]1NC(=O)[C@@H](N)CSCc2cc(n(CC(=O)N3CCC[C@H]3C(=O)Nc3ccc4c(CC(N)=O)cc(=O)oc4c3)n2)CSC[C@@H](C(=O)NCC(N)=O)NC(=O)[C@H](CC(=O)O)NC(=O)[C@H](C)NC(=O)[C@H](CC(N)=O)NC(=O)[C@H](CCC(N)=O)NC(=O)[C@H](Cc2ccccc2)NC(=O)[C@H](CO)NC1=O [FAP-33.2A6] (H-CVSFQNADCG-NH2; linker 1-9 via X1; N-terminus assumed) | 28312 | 0.906 ± 0.050 | 34.4 | FAPα >>>PREP
2 | – | – | – | – | – | – | CC(C)C[C@@H]1NC(=O)[C@H](CC(N)=O)NC(=O)[C@H](CCC(N)=O)NC(=O)[C@H](Cc2ccccc2)NC(=O)[C@H](CO)NC(=O)[C@H](C(C)C)NC(=O)[C@@H](N)CSCc2cc(nn2CC(=O)N2CCC[C@H]2C(=O)Nc2ccc3c(CC(N)=O)cc(=O)oc3c2)CSC[C@@H](C(=O)NCC(N)=O)NC(=O)[C@H](CC(=O)O)NC1=O [FAP-33.2] (H-CVSFQNLDCG-NH2; linker 1-9 via X2; N-terminus assumed) | 23633 | 0.709 ± 0.034 | – | FAPα >>>PREP
3 | 103 ± 31 | 597 | DPP4>>>PREP | – | – | – | Cc1cc(=O)oc2cc(NC(=O)[C@@H]3CCCN3C(=O)CN)ccc12 [GP-AMC] (H-Gly-Pro-{AMC}) | 637 | – | – | –
4 | 145 ± 60 | – | – | 161 ± 91 | 113.05 | 633723 | Cc1cc(=O)oc2cc(NC(=O)[C@@H]3CCCN3C(=O)CNC(=O)OCc3ccccc3)ccc12 [zGP-AMC] (Cbz-Gly-Pro-{AMC}) | 155793 | 22.59 ± 4.99 | – | 0.24
